# Measured values from US12653194B2, “Compositions and methods for promoting soil microbials for plant health and stress tolerance” (The United States of America, as represented by The …, priority 2021, dated 2026).
# Test system: soil microbials (fungi and bacteria)
# Test: Peach orchard field trial: soil fungal and bacterial abundance (16S rRNA / ITS sequencing, PCA)
# Format: in vivo
# Details: applied in 110 mL water within 15 cm of tree trunk plus 190 mL water, extract 34 HCE about 16x diluted (0.0625xHCE), 300,000 IJs per tree
# From the text: The pheromone can be extracted with alcohol in a concentration range from about 0% to about 95%. The liquid (supernatant) may be removed and concentrated to produce a dry extract by using a stream of nitrogen, by rotary evaporation, by lyophilization, or by any equivalent means. The dry powder may be resuspended in water and centrifuged to separate insoluble debris from water-soluble pheromones. For storage the supernatant may be concentrated to dryness using a lyophilizer, a spray drier, or any equivalent means. The concentration and ratio of the pheromone mixture was evaluated for its activity on plants. […] In addition, for example, one insect host cadaver extract from Galleria mellonella (average weight of G. mellonella larvae, wax worm, is estimated to be approximately 232+/−57 mg) is diluted in 200 μL water which is physiologically relevant concentration as 1×HCE. When one insect host cadaver extract from Galleria mellonella is resuspended in 3200 μL (about 16 times dilution or 0.0625×HCE). Total 34 HCE S. carpocapsae pheromone extracts with 300,000 S. carpocapsae IJs in 110 mL of water in 15 cm soil surrounding the tree trunk. Then an additional 190 mL of water was added to the 15 cm of soil surrounding the tree trunk. […]
structure (smiles),measurement,value
CCOP(=S)(OCC)Oc1nc(Cl)c(Cl)cc1Cl [Chlorpyrifos],time for which soil microbials were promoted / soil microbial abundance increased,≤ 2 weeks
